The values that follow come from US20260224708A1, “CONJUGATE COMPOUNDS AND COMPOSITIONS” (REZUBIO PHARMACEUTICALS CO., LTD, priority 2023, published 2026).

Where a name gives a salt, the structure may show the parent alone.

Series [1] can be described thus: Pharmacokinetics in mice, IV and PO. The series is classed as in vivo. The note with it: mouse, plasma, male ICR (CD-1) mice. The method, then: Male ICR (CD-1) mice at around 4-6 weeks with body weight of around 25 grams (n=3) were purchased from VT-River (Zhejiang, China). After 1-week acclimation, animals were dosed with exemplary compounds intravenously at 1 mpk or orally at 10 mpk (0.5% methylcellulose in PBS as vehicle for both routes of administration). Blood samples (30 μL) were collected via saphenous vein puncture at 5 (IV only), 15, 30, 60, 120, 240, 480, and 1440 min post dose. The blood samples were saved in 0.5 M K2EDTA coated tubes and centrifuged at 4,600 rpm at 4° C. for 5 min. Plasma samples were collected and stored in −80° C. till PK analysis.
Take 10 μL of K2EDTA-treated plasma samples of CD-1 mice, add 200 μL of precipitation solution with internal standard (5 ng/mL Terfenadine in MeOH/ACN), mix well by vortexing for 1 min at room temperature followed by centrifuge at 4° C. and 4000 rpm for 15 min. Save the supernatant as injection for LC-MS/MS quantification of exemplary compounds in plasma samples of mice.
Establish a standard curve before and after each analytical batch, accompanied by quality controls of low, medium, and high concentrations. The number of quality control samples is not less than 6 and should be equal to or more than the number of samples of each batch, and interspersed in sample measurement. Standard curve and quality control samples of each batch must meet the acceptance criteria.

The target of another series is T1, GPR40 (Homo sapiens, UniProt O14842).
T1 construct: expressed in transfected cells
T1 sequence (O14842 whole entry): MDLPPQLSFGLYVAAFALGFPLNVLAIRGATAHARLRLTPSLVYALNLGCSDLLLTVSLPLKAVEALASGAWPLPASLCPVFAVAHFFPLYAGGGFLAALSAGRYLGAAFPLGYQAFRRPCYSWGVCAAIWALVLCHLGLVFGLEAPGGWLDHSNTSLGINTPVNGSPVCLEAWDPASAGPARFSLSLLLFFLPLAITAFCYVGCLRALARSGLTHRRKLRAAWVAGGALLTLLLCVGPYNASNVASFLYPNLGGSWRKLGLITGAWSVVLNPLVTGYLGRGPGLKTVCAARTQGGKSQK
The series is described as follows: IP1 accumulation assay in HEK293 cells stably expressing GPR40. The class given is cell-based. The method, then: IP1 accumulation assay was used to evaluate the potency of compounds. HEK293 cells stably expressing GPR40 were cultured in 5% CO2 incubator (ThermoFisher) in maintenance media (Dulbecco's modified Eagle's medium with 4.5 g/L of glucose, 10% fetal bovine serum, 100 μg/mL Hygromycin, and Penicillin (100 U/mL)/Streptomycin (100 μg/mL)) till 100% confluency. Cells were harvested freshly, spun down at 300×g for 5 min, and resuspended in pre-warmed 1×stimulant buffer from Cisbio IP-One HTRF Detection kit (Cisbio). Cell density was adjusted to 2.0×10^6 cells/mL. DMSO was used as blank control and AMG-1638 (CAS #: 1142214-62-7) as positive control. Compounds were prepared at 10 mM in DMSO and 5 nL of 3×serially diluted compounds (10 concentrations) were added to each well of the 384-LDV assay plate (Corning) by using ECHO 550 (Labcyte). Five μL of cells in suspension were transferred into each well by using Multidrop Combi Reagent Dispenser (ThermoFisher). Assay plate was then sealed and incubated at 37° C. for 2 hours. IP-d2 reagent and anti-IP1 reagent were prepared following the manual (Cisbio). Five μL of IP1-d2 and then 5 μL of anti-IP1 antibody was added to each well sequentially. Assay plate was incubated at room temperature for 60 min and then read at 665 nm/615 nm on an Envision plate reader (PerkinElmer). […] Dose curve was fitted and EC50 of each compound was calculated by using XLFit.

Molecule `COc1ccc(C(=O)N(CC(C)(C)CCCCCCCCCCCCCCCCCCCC(=O)NCC[N+](C)(CC(=O)NCCN)CC(=O)NCCN)c2cccc(C)n2)c(N2CCC(COc3cc([C@@H](CC(=O)O)C4CC4)ccn3)CC2)c1` [Example 4] had a clearance in series [1] (1 mg/kg, IV 1 mpk) of 0.0132 L/h/kg.
`COc1ccc(C(=O)N(CC(C)(C)CCCCCCCCCCCCCCCCCC(=O)NCCC[N+](C)(CC(=O)NCCN)CC(=O)NCCN)c2cccc(C)n2)c(N2CCC(COc3cc([C@@H](CC(=O)O)C4CC4)ccn3)CC2)c1` [Example 12] displayed a clearance in series [1] (1 mg/kg, IV 1 mpk) of 0.009 L/h/kg.
The same measure, in the same setting: the result for `COc1ccc(C(=O)N(CC(C)(C)CCCCCCCCCCCCCCCCCCCC(=O)NCCCN(CC(=O)O)CC(=O)O)c2cccc(C)n2)c(N2CCC(COc3cc([C@@H](CC(=O)O)C4CC4)ccn3)CC2)c1` [Example 13] reads 0.0084 L/h/kg; that for `COc1ccc(C(=O)N(CC(C)(C)CCCCCCCCCCCCCCCCCCCC(=O)NCCC[N+](C)(CC(=O)[O-])CC(=O)O)c2cccc(C)n2)c(N2CCC(COc3cc([C@@H](CC(=O)O)C4CC4)ccn3)CC2)c1` (stereo partly drawn) [Example 14], 0.012 L/h/kg.
With `COc1ccc(C(=O)N(CC(C)(C)CCCCCCCCCCCCCCCCCC(=O)NCC[N+](C)(CCCC(=O)NCCN)CCCC(=O)NCCN)c2cccc(C)n2)c(N2CCC(COc3cc([C@@H](CC(=O)O)C4CC4)ccn3)CC2)c1` [Example 17], the midpoint of the response on GPR40, the EC50, lay at 0.11 nM. In series [1] (1 mg/kg, IV 1 mpk), this molecule gave an AUC of 104 µM·h, a clearance of 0.006 L/h/kg and a half-life of 10.5 h. In addition, in series [1] (10 mg/kg, PO 10 mpk), the Cmax came out at 0.238 µM and the time of peak concentration (Tmax) came to 6.7 h. Further, the bioavailability in series [1] (10 mg/kg, PO 10 mpk, oral bioavailability) was found to be 0.41%.
With `COc1ccc(C(=O)N(CC(C)(C)CCCCCCCCCCCCCCCCCC(=O)NCCC[N+]23CCN(CC2)CC3)c2cccc(C)n2)c(N2CCC(COc3cc([C@@H](CC(=O)O)C4CC4)ccn3)CC2)c1` [Example 18, (S)-1-(3-(20-(2-(4-(((4-(2-carboxy-1-cyclopropylethyl)pyridin-2-yl)oxy)methyl)piperidin-1-yl)-4-methoxy-N-(6-methylpyridin-2-yl)benzamido)-19,19-dimethylicosanamido)propyl)-1,4-diazabicyclo[2.2.2]octan-1-ium TFA salt], the clearance in series [1] (1 mg/kg, IV 1 mpk) is 0.0192 L/h/kg.
In series [1] (1 mg/kg, IV 1 mpk), `COc1ccc(C(=O)N(CC(C)(C)CCCCCCCCCCCCCCCCCC(=O)NCCC[N+]23CC[N+](C)(CC2)CC3)c2cccc(C)n2)c(N2CCC(COc3cc([C@@H](CC(=O)O)C4CC4)ccn3)CC2)c1` [Example 19] had a clearance of 0.0258 L/h/kg.
Still for that read-out and setting: the result for `COc1ccc(C(=O)N(CC(C)(C)CCCCCCCCCCCCCCCCCCCCCC[N+]23CCN(CC2)CC3)c2cccc(C)n2)c(N2CCC(COc3cc([C@@H](CC(=O)O)C4CC4)ccn3)CC2)c1` [Example 21, (S)-1-(24-(2-(4-(((4-(2-carboxy-1-cyclopropylethyl)pyridin-2-yl)oxy)methyl)piperidin-1-yl)-4-methoxy-N-(6-methylpyridin-2-yl)benzamido)-23,23-dimethyltetracosyl)-1,4-diazabicyclo[2.2.2]octan-1-ium] reads 0.0402 L/h/kg.
Regarding `COc1ccc(C(=O)N(CC(C)(C)CCn2cc(CCCCCCCCCCCCCCCCCC(=O)NCCC[N+]34CCN(CC3)CC4)nn2)c2cccc(C)n2)c(N2CCC(COc3cc([C@@H](CC(=O)O)C4CC4)ccn3)CC2)c1` [Example 34], the midpoint of the response at GPR40, the EC50, lay at 0.32 nM.
